Measured values: US20110082130A1 (LIGAND PHARMACEUTICALS, INC., priority 2006, published 2011)

Target: T1, chimeric human H3 receptor (Homo sapiens, UniProt Q9Y5N1)
T1 construct: made in house; host or cells: Sf9 insect cells (baculovirus); P2 membrane preparation
Assay: Chimeric human H3 receptor screening GTP binding assay (inhibition of histamine-stimulated GTP-gamma35S binding, Example 8)
Format: biochemical
Details: Table II "Ki", symbol †, 4 μM of the compound, 1 μM histamine, read-out: percent inhibition of the signal obtained with 1 μM histamine
How it was run: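 Values are percent inhibition of 1 μM histamine-stimulated GTP-gamma35S […] binding, with non-specific binding (10 μM GTP-gammaS) subtracted, by compounds tested at 4 μM. Membranes (35 μg) from Sf9 cells expressing chimeric human H3 with G-protein subunits were used in Tris pH 7.4 buffer with 10 μM GDP. Incubation lasted 60 min at room temperature, followed by filtration and scintillation counting.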

T1 sequence (Q9Y5N1 with tags, fused parts or gaps): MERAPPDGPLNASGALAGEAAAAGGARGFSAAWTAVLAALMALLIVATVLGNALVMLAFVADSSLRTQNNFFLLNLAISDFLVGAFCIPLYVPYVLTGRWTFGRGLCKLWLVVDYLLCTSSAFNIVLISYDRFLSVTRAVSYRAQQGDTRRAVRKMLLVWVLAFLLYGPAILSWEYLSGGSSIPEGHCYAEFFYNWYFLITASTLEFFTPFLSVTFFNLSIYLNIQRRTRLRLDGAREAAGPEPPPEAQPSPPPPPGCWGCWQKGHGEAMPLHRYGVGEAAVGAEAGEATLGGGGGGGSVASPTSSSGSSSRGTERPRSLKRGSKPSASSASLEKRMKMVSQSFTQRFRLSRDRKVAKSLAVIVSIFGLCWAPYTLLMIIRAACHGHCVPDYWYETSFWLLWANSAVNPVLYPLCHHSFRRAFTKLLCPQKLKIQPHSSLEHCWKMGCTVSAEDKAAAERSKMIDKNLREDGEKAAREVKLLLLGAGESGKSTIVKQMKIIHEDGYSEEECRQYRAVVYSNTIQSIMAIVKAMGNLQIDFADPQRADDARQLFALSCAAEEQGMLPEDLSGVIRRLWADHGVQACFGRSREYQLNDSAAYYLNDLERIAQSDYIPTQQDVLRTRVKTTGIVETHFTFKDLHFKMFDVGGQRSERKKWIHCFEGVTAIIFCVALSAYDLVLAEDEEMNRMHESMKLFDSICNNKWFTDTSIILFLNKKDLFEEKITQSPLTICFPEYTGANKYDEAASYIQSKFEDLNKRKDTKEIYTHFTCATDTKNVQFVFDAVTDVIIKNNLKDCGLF

Row | inhibition at 4 µM | Compound
1 | ≥ 90% | O=C(CN1CCc2cc(-c3cc(F)cc(F)c3)ccc2C1)N1CCN(C2CCCCC2)CC1 [Compound 598, 2-[2-(4-cyclohexylpiperazin-1-yl)-2-oxoethyl]-6-(3,5-difluorophenyl)-1,2,3,4-tetrahydroisoquinoline]
2 | ≥ 90% | O=C(CN1CCc2cc(-c3cccc(F)c3F)ccc2C1)N1CCN(C2CCC2)CC1 [Compound 599, 2-[2-(4-cyclobutylpiperazin-1-yl)-2-oxoethyl]-6-(2,3-difluorophenyl)-1,2,3,4-tetrahydroisoquinoline]
3 | ≥ 90% | O=C(CN1CCc2cc(-c3cccc(F)c3F)ccc2C1)N1CCN(C2CCCC2)CC1 [Compound 600, 2-[2-(4-cyclopentylpiperazin-1-yl)-2-oxoethyl]-6-(2,3-difluorophenyl)-1,2,3,4-tetrahydroisoquinoline]
4 | ≥ 90% | O=C(CN1CCc2cc(-c3cccc(F)c3F)ccc2C1)N1CCN(C2CCCCC2)CC1 [Compound 601, 2-[2-(4-cyclohexylpiperazin-1-yl)-2-oxoethyl]-6-(2,3-difluorophenyl)-1,2,3,4-tetrahydroisoquinoline]
5 | ≥ 90% | CC(C)N1CCN(C(=O)CN2CCc3cc(-c4cccc(F)c4F)ccc3C2)CC1 [Compound 602, 6-(2,3-difluorophenyl)-2-[2-(4-isopropylpiperazin-1-yl)-2-oxoethyl]-1,2,3,4-tetrahydroisoquinoline]
6 | ≥ 90% | CCN1CCN(C(=O)CN2CCc3cc(-c4cncnc4)ccc3C2)CC1 [Compound 603, 2-[2-(4-ethylpiperazin-1-yl)-2-oxoethyl]-6-pyrimidin-5-yl-1,2,3,4-tetrahydroisoquinoline]
7 | ≥ 90% | CCCCN1CCN(C(=O)CN2CCc3cc(-c4cncnc4)ccc3C2)CC1 [Compound 604, 2-[2-(4-butylpiperazin-1-yl)-2-oxoethyl]-6-pyrimidin-5-yl-1,2,3,4-tetrahydroisoquinoline]
8 | ≥ 90% | CC(C)CN1CCN(C(=O)CN2CCc3cc(-c4cncnc4)ccc3C2)CC1 [Compound 605, 2-[2-(4-isobutylpiperazin-1-yl)-2-oxoethyl]-6-pyrimidin-5-yl-1,2,3,4-tetrahydroisoquinoline]
9 | ≥ 90% | CCC(C)N1CCN(C(=O)CN2CCc3cc(-c4cncnc4)ccc3C2)C[C@H]1C (stereo partly drawn) [Compound 606, 2-{2-[(3R)-4-sec-butyl-3-methylpiperazin-1-yl]-2-oxoethyl}-6-pyrimidin-5-yl-1,2,3,4-tetrahydroisoquinoline]
10 | ≥ 90% | CC(C)C(C)N1CCN(C(=O)CN2CCc3cc(-c4cncnc4)ccc3C2)CC1 (centres unmarked) [Compound 607, 2-{2-[4-(1,2-dimethylpropyl)piperazin-1-yl]-2-oxoethyl}-6-pyrimidin-5-yl-1,2,3,4-tetrahydroisoquinoline]
11 | ≥ 90% | CC(C1CC1)N1CCN(C(=O)CN2CCc3cc(-c4cncnc4)ccc3C2)CC1 (centres unmarked) [Compound 609, 2-{2-[4-(1-cyclopropylethyl)piperazin-1-yl]-2-oxoethyl}-6-pyrimidin-5-yl-1,2,3,4-tetrahydroisoquinoline]
12 | ≥ 90% | O=C(CN1CCc2cc(-c3cncnc3)ccc2C1)N1CCN(C2CCOCC2)CC1 [Compound 621, 2-{2-oxo-2-[4-(tetrahydro-2H-pyran-4-yl)piperazin-1-yl]ethyl}-6-pyrimidin-5-yl-1,2,3,4-tetrahydroisoquinoline]
13 | ≥ 90% | C[C@H]1CN(C(=O)CN2CCc3cc(-c4cncnc4)ccc3C2)CCN1C1CCOCC1 [Compound 622, 2-{2-[(3S)-3-methyl-4-(tetrahydro-2H-pyran-4-yl)piperazin-1-yl]-2-oxoethyl}-6-pyrimidin-5-yl-1,2,3,4-tetrahydroisoquinoline]
14 | ≥ 90% | O=C(CN1CCc2cc(-c3cncnc3)ccc2C1)N1CCN(C2C[C@H]3CC[C@@H]2C3)CC1 (stereo partly drawn) [Compound 623, 2-(2-{4-[(1R,4S)-bicyclo[2.2.1]hept-2-yl]piperazin-1-yl}-2-oxoethyl)-6-pyrimidin-5-yl-1,2,3,4-tetrahydroisoquinoline]
